Literature values in EP2055233B1 (priority 2003, dated 2004).

Experiments:
[1] = in vivo, iv

SMILES: CC(C)c1cccc(C(C)C)c1O [propofol, 2,6-diisopropylphenol]
- dose recovered in urine as hydroxylated and conjugated metabolites: 88%
- plasma concentration [1]: 1 to 10 µg/mL
